Results published in paper PMC9682524, “Investigation of the Interaction between Human Serum Albumin and Branched Short-Chain Perfluoroalkyl Compounds” (Chemical Research in Toxicology, 2022).
Where “and” joins values, the source holds several entries; their conditions need not be identical. Identical values can stand only once. Like-named read-outs stand apart in the source and are kept apart here. One block for each compound: values may come before it.

Legend:
[1] = target: T1, human serum albumin (hSA) (Homo sapiens, UniProt P02768); assay: Isothermal titration calorimetry (ITC) of PFAS binding to defatted hSA
T1 construct: purchased Albumin Bioscience (Huntsville, AL, USA)
T1 sequence (P02768 25-609): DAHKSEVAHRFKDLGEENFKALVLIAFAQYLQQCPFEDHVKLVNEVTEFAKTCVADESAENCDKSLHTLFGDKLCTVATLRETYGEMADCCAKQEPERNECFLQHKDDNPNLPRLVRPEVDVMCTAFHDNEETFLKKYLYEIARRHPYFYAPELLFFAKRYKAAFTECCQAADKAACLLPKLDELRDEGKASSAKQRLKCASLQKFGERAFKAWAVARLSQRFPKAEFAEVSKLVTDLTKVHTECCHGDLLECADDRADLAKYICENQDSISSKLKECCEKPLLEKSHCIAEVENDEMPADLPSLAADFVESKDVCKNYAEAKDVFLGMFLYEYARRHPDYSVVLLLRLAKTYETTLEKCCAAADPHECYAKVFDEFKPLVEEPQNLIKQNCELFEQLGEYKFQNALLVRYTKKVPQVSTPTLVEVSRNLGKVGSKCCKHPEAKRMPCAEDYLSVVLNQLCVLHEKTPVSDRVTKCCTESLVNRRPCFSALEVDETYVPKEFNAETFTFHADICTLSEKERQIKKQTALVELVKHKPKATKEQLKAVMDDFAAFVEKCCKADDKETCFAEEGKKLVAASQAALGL
Protocol: (§1) ITC experiments were performed using a Microcal PEAQ-ITC instrument (Malvern Panalytical, Malvern, UK). Both dhSA (110 μM) and ligands (HPFO-DA, C6O4, PFHxA, Ibu, and War, 4 mM solutions) were dissolved in 50 mM NaPi, 100 mM NaCl, pH 7.4. Only in the case of War, 2.5% v/v DMSO was added to the buffer to improve its solubility. All working solutions were properly degassed. Titrations of dhSA with ligands were carried out at different temperatures (298 and 310 K). In each experiment, an initial 0.4 μL injection (excluded from subsequent data analysis) was followed by 25 independent injections of 1.5 μL with a stirring rate of 750 rpm to ensure rapid mixing. A 120 s interval between injections was applied to guarantee the equilibrium at each titration point. Blank experiments (ligands against buffer) were carried out for each ligand and subtracted to corresponding titrations in order to screen dilution heat contributions. Competition experiments were conducted by adding saturating concentrations of albumin-binding drugs (either 250 μM Ibu or 200 μM War) to dhSA in the measure cell and titrating each PFAS (4 mM) with the aforementioned instrumental parameters. Data were analyzed using the MicroCal PEAQ-ITC Evaluation software (Malvern Panalytical, Malvern, UK). Integrated heat signals were fitted to “one set of sites” (C6O4, PFHxA), “two sets of sites” (PFOA), or “sequential” (HPFO-DA) binding models. Values for the binding affinity constant (KA = 1/KD) and enthalpy change (ΔH), together with the stoichiometry of each PFAS-dhSA reaction, were obtained from curve fitting. Free energy and the entropy change (ΔS) were calculated from the Gibbs free energy (ΔG) relationships: ΔG = ΔH – TΔS = −RT ln(KA).

[2] = environmentally exposed human populations; cited from earlier work
[3] = target: T1, human serum albumin (hSA); assay: Crystal structure of hSA in complex with HPFO-DA and Myr (PDB 7Z57); type: binding; settings: ternary complex hSA-HPFO-DA-Myr, 1:20:5 molar ratio
Protocol: Crystallization trials of dhSA in complex with HPFO-DA, C6O4 and sodium myristate (Myr) were carried out at 285 K in an MRC maxi 48-well crystallization plate (Hampton Research, Aliso Viejo, CA, USA) using the sitting-drop vapor-diffusion method and the Morpheus MD1–46 protein crystallization screen kit (Molecular Dimensions Ltd., Catcliffe, UK). Droplets of 1.6 μL volume (0.8 μL of protein complex and 0.8 μL of reservoir solution) were set up using an Oryx 8 crystallization robot (Douglas Instruments Ltd., Catcliffe, UK) and equilibrated against 120 μL reservoir solution. In all the cases, best crystals were obtained by streak- or micro-seeding and left for 5–7 days. Crystals of dhSA (1 mM) incubated with a 20-fold molar excess of HPFO-DA (20 mM) and a fivefold molar excess of Myr (5 mM) were obtained using the following precipitant agents: 50 mM bicine, 50 mM Trizma base, 30 mM sodium fluoride, 30 mM sodium bromide, 30 mM sodium iodide, 12.5% v/v MPD, 12.5% w/v PEG 1000, and 12.5% w/v PEG 3350 pH 8.5. […]
The structure was solved by molecular replacement with software PHASER[49] using as a template the model 7AAI.[45] […] Intramolecular and intermolecular hydrogen bond interactions were analyzed by PROFUNC,[53] […]

[4] = target: T1, human serum albumin (hSA); assay: Competitive ITC with hSA saturated with ibuprofen or warfarin; type: binding; settings: for titration profile to hSA saturated with War: 200 μM War; for titration profile to hSA saturated with War / titration profile to Ibu-saturated hSA: PFAS 4 mM titrant; for titration profile to Ibu-saturated hSA: 250 μM Ibu; for preferably occupied hSA binding sites: concluded from stoichiometry and competition with Ibu
Protocol: as §1
These include ibuprofen (Ibu) and warfarin (War), two well-characterized molecules known to share the same fatty acid-binding sites (FA4 and FA6 for Ibu, FA7 for War) with long-chain PFASs (Figure 2a).[45] Again, the short-chain perfluoroalkyl compound PFHxA was included as the control. […] The results are consistent with those previously reported that identified the ibuprofen-binding pocket as a preferable cavity to lodge polyfluoroalkyl compounds.[45]

[5] = 298 K, two sets of sites, high-affinity sites
[6] = 298 K, two sets of sites, low-affinity sites
[7] = 310 K, two sets of sites, high-affinity sites
[8] = 310 K, two sets of sites, low-affinity sites
[9] = 310 K, sequential binding, first binding event
[10] = 310 K, sequential binding, second binding event

SMILES: O=C(O)C(F)(F)C(F)(F)C(F)(F)C(F)(F)C(F)(F)C(F)(F)C(F)(F)F [PFOA, perfluorooctanoic acid]
n (stoichiometry) [1, 5]: 0.89 ± 0.30 | ΔG [1, 5]: –36.10 kJ/mol | –TΔS [1, 5]: –17.70 kJ/mol | ΔG [1, 6]: –26.60 kJ/mol | –TΔS [1, 6]: –28.2 kJ/mol | n (stoichiometry) [1, 7]: 0.95 ± 0.2 | ΔG [1, 7]: –38.10 kJ/mol | ΔH [1, 7]: –16.5 ± 1.9 kJ/mol | –TΔS [1, 7]: –21.6 kJ/mol | n (stoichiometry) [1, 8]: 9.5 ± 0.20 | ΔG [1, 8]: –29.10 kJ/mol | ΔH [1, 8]: –2.26 ± 0.75 kJ/mol | –TΔS [1, 8]: –31.30 kJ/mol | Kd ([1]; KD, 298 K, two sets of sites, low-affinity sites): 29.7 ± 1.7 µM | Kd ([1]; KD, 310 K, two sets of sites, low-affinity sites): 46 ± 2 µM | Kd ([1]; human, pH 7.4, KD, 298 K, two sets of sites, high-affinity sites): 0.4 ± 0.01 µM | Kd ([1]; human, pH 7.4, KD, 310 K, two sets of sites, high-affinity sites): 39.3 ± 0.4 µM | average half-life for serum elimination [2]: 1–5 years

SMILES: O=S(=O)(O)C(F)(F)C(F)(F)C(F)(F)C(F)(F)C(F)(F)C(F)(F)C(F)(F)C(F)(F)F [PFOS, perfluorooctanesulfonic acid]
average half-life for serum elimination [2]: 1–5 years

number of distinct binding sites occupied in crystal structure [3]: four
SMILES: CCCCCCCCCCCCCC(=O)O [Myr, sodium myristate]

SMILES: O=C(O)C(F)(F)OC1(F)OC(F)(F)OC1(F)OC(F)(F)F (stereo not drawn) [C6O4, perfluoro ([5-methoxy-1,3-dioxolan-4-yl]oxy) acetic acid]
n (stoichiometry) ([1]; 298 K, one set of sites): 1.6 ± 0.2 | ΔG ([1]; 298 K, one set of sites): –32.10 kJ/mol | ΔH ([1]; 298 K, one set of sites): –21.4 ± 1.4 kJ/mol | –TΔS ([1]; 298 K, one set of sites): –10.7 kJ/mol | n (stoichiometry) ([1]; 310 K, one set of sites): 1.5 ± 0.3 | ΔG ([1]; 310 K, one set of sites): –31.70 kJ/mol | ΔH ([1]; 310 K, one set of sites): –25.8 ± 4.2 kJ/mol | –TΔS ([1]; 310 K, one set of sites): 0.406 kcal/mol | Kd ([1]; KD, 298 K, one set of sites): 2.4 ± 0.1 µM | Kd ([1]; KD, 310 K, one set of sites): 5.4 ± 2.1 µM | titration profile to hSA saturated with War [4]: comparable to that of hSA in the absence of competitive drug | titration profile to Ibu-saturated hSA [4]: nearly saturated flat curve | preferably occupied hSA binding sites [4]: FA4 and/or FA6 sites

SMILES: O=C(O)C(F)(OC(F)(F)C(F)(F)C(F)(F)F)C(F)(F)F (stereo not drawn) [HPFO-DA, 2,3,3,3-tetrafluoro-2-(heptafluoropropoxy) propanoic acid]
fold lower binding affinity (KD) compared to PFOA high-affinity sites ([1]; 298 K): ~47 fold | ΔH2 ([1]; 298 K, sequential binding, second binding event): 8.08 kcal/mol and 8.08 ± 0.454 kcal/mol | ΔH1 [1, 9]: –23.2 ± 3.4 kJ/mol | –TΔS1 [1, 9]: –6.54 kJ/mol | ΔH2 [1, 10]: 6.74 ± 0.669 kcal/mol | –TΔS2 [1, 10]: –55.4 kJ/mol | Kd ([1]; KD1, 298 K, sequential binding, first binding event): 19 ± 1.3 µM | Kd ([1]; KD1, 310 K, sequential binding, first binding event): 9.9 ± 2.3 µM | Kd ([1]; KD2, 310 K, sequential binding, second binding event): 27 ± 8.1 µM | Kd ([1]; human, pH 7.4, KD2, 298 K, sequential binding, second binding event): > 80 µM | Kd ([1]; read-out: KD2, 298 K, sequential binding, second binding event): 84.2 ± 14.6 µM | titration profile to hSA saturated with War [4]: comparable to that of hSA in the absence of competitive drug | titration profile to Ibu-saturated hSA [4]: nearly saturated flat curve | preferably occupied hSA binding sites [4]: FA4 and/or FA6 sites | number of distinct binding sites occupied in crystal structure [3]: two

SMILES: O=C(O)C(F)(F)C(F)(F)C(F)(F)C(F)(F)C(F)(F)F [PFHxA, Perfluorohexanoic acid]
n (stoichiometry) ([1]; 298 K, one set of sites): 1.02 ± 0.05 | ΔG ([1]; 298 K, one set of sites): –30.60 kJ/mol | ΔH ([1]; 298 K, one set of sites): –34.1 ± 7.40 kJ/mol | n (stoichiometry) ([1]; 310 K, one set of sites): 1.03 ± 0.05 | ΔG ([1]; 310 K, one set of sites): –31.70 kJ/mol | ΔH ([1]; 310 K, one set of sites): –39.2 ± 2.00 kJ/mol | –TΔS ([1]; 310 K, one set of sites): 1.84 kcal/mol | Kd ([1]; KD, 298 K, one set of sites): 4.5 ± 2.1 µM | Kd ([1]; KD, 310 K, one set of sites): 5.9 ± 0.7 µM | titration profile to hSA saturated with War [4]: comparable to that of hSA in the absence of competitive drug | titration profile to Ibu-saturated hSA [4]: nearly saturated flat curve | preferably occupied hSA binding sites [4]: FA4 and/or FA6 sites
